# Assay results: paper PMC9267968, “Continued Structural Exploration of Sulfocoumarin as Selective Inhibitor of Tumor-Associated Human Carbonic Anhydrases IX and XII” (Molecules, 2022)
# Molecular target: T1, hCA IX (Homo sapiens, UniProt Q16790)
# T1 construct: made in house
# Assay: stopped-flow CO2 hydrase assay, hCA IX inhibition
# Assay type: biochemical
# Conditions: 6 h incubation of enzyme and inhibitor; mean from 3 different assays, errors 5-10%; read-out: KI (nM) CA IX
# Procedure: (§1) For this reason, we herein report a 6 h incubation time instead.
# (§2) An Applied Photophysics stopped-flow instrument was used for assaying the CA catalyzed CO2 hydration activity. […] The uncatalyzed rates were determined in the same manner and subtracted from the total observed rates. Stock solutions of inhibitor (0.1 mM) were prepared in distilled–deionized water and dilutions up to 0.01 nM were done thereafter with the assay buffer. Inhibitor and enzyme solutions were preincubated together for 6h at room temperature prior to assay, in order to allow for the formation of the E-I complex. The inhibition constants were obtained by non-linear least-squares methods using PRISM 3 and the Cheng–Prusoff equation and represent the mean from at least three different determinations. […] All CA isoforms were recombinant ones obtained in-house.
row,SMILES,Ki [nM]
1,"COc1ccc2c(c1)OS(=O)(=O)C(C(=O)Nc1ccc(Br)cc1)=C2 [Compound 44, N-(4-bromophenyl)-7methoxybenzo[e][1,2]oxathiine-3-carboxamide 2,2-dioxide]",51500
2,"COc1ccc(NC(=O)C2=Cc3ccc(OC)cc3OS2(=O)=O)cc1 [Compound 46, N-(4-methoxyphenyl)-7-methoxybenzo[e][1,2]oxathiine-3-carboxamide 2,2-dioxide]",4370
3,"COc1cccc(NC(=O)C2=Cc3ccc(OC)cc3OS2(=O)=O)c1 [Compound 47, N-(3-methoxyphenyl)-7-methoxybenzo[e][1,2]oxathiine-3-carboxamide 2,2-dioxide]",6560

# The remaining lines, values ahead:
row,Ki [nM],SMILES
1,2430,"COc1ccc2c(c1)OS(=O)(=O)C(C(=O)Nc1ccccc1)=C2 [Compound 43, 7-methoxy-N-phenylbenzo[e][1,2]oxathiine-3-carboxamide 2,2-dioxide]"
2,64400,"COc1ccc2c(c1)OS(=O)(=O)C(C(=O)Nc1cccc(Br)c1)=C2 [Compound 45, N-(3-bromophenyl)-7-methoxybenzo[e][1,2]oxathiine-3-carboxamide 2,2-dioxide]"

# Molecular target: T2, hCA XII (Homo sapiens, UniProt O43570)
# T2 construct: made in house
# T2 sequence (O43570 25-354): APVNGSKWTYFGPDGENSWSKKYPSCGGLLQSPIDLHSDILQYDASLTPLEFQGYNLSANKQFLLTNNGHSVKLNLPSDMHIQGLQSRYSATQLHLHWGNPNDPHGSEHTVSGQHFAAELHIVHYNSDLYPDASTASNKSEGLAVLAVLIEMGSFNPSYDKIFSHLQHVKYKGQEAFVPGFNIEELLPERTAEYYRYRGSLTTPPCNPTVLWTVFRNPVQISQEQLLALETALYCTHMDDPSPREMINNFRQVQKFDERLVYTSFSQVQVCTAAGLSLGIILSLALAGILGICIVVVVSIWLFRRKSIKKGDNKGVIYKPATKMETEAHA
# Assay: biochemical
# Conditions: not given
# Procedure: as §1, §2
row,SMILES,Ki [µM]
1,"COc1ccc2c(c1)OS(=O)(=O)C(C(=O)Nc1ccc(Br)cc1)=C2 [Compound 44, N-(4-bromophenyl)-7methoxybenzo[e][1,2]oxathiine-3-carboxamide 2,2-dioxide]",42.5
2,"COc1ccc(NC(=O)C2=Cc3ccc(OC)cc3OS2(=O)=O)cc1 [Compound 46, N-(4-methoxyphenyl)-7-methoxybenzo[e][1,2]oxathiine-3-carboxamide 2,2-dioxide]",6.55
3,"COc1cccc(NC(=O)C2=Cc3ccc(OC)cc3OS2(=O)=O)c1 [Compound 47, N-(3-methoxyphenyl)-7-methoxybenzo[e][1,2]oxathiine-3-carboxamide 2,2-dioxide]",2.47

# More lines, now with the values ahead:
row,Ki [µM],SMILES
1,1.59,"COc1ccc2c(c1)OS(=O)(=O)C(C(=O)Nc1ccccc1)=C2 [Compound 43, 7-methoxy-N-phenylbenzo[e][1,2]oxathiine-3-carboxamide 2,2-dioxide]"
2,76.5,"COc1ccc2c(c1)OS(=O)(=O)C(C(=O)Nc1cccc(Br)c1)=C2 [Compound 45, N-(3-bromophenyl)-7-methoxybenzo[e][1,2]oxathiine-3-carboxamide 2,2-dioxide]"

# Molecular target: T3, hCA I (Homo sapiens, UniProt P00915)
# T3 construct: made in house
# T3 sequence (P00915 whole entry): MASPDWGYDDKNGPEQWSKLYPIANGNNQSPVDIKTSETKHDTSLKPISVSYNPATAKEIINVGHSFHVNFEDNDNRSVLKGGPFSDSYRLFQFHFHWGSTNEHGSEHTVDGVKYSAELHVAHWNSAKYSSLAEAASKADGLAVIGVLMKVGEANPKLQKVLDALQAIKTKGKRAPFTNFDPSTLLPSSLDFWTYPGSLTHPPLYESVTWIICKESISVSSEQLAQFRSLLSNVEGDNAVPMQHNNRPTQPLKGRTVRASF
# Assay: stopped-flow CO2 hydrase assay, hCA I inhibition
# Assay type: biochemical
# Conditions: 6 h incubation of enzyme and inhibitor; mean from 3 different assays, errors 5-10%; read-out: KI (nM) CA I
# Procedure: as §1, §2
row,SMILES,Ki [nM]
1,"COc1ccc2c(c1)OS(=O)(=O)C(C(=O)Nc1ccc(Br)cc1)=C2 [Compound 44, N-(4-bromophenyl)-7methoxybenzo[e][1,2]oxathiine-3-carboxamide 2,2-dioxide]",> 100000
2,"COc1ccc(NC(=O)C2=Cc3ccc(OC)cc3OS2(=O)=O)cc1 [Compound 46, N-(4-methoxyphenyl)-7-methoxybenzo[e][1,2]oxathiine-3-carboxamide 2,2-dioxide]",> 100000
3,"COc1cccc(NC(=O)C2=Cc3ccc(OC)cc3OS2(=O)=O)c1 [Compound 47, N-(3-methoxyphenyl)-7-methoxybenzo[e][1,2]oxathiine-3-carboxamide 2,2-dioxide]",> 100000

# The next lines start with the values.
row,Ki [nM],SMILES
1,> 100000,"COc1ccc2c(c1)OS(=O)(=O)C(C(=O)Nc1ccccc1)=C2 [Compound 43, 7-methoxy-N-phenylbenzo[e][1,2]oxathiine-3-carboxamide 2,2-dioxide]"
2,> 100000,"COc1ccc2c(c1)OS(=O)(=O)C(C(=O)Nc1cccc(Br)c1)=C2 [Compound 45, N-(3-bromophenyl)-7-methoxybenzo[e][1,2]oxathiine-3-carboxamide 2,2-dioxide]"

# Molecular target: T4, hCA II (Homo sapiens, UniProt P00918)
# T4 construct: made in house
# Assay: stopped-flow CO2 hydrase assay, hCA II inhibition
# Assay type: biochemical
# Conditions: 6 h incubation of enzyme and inhibitor; mean from 3 different assays, errors 5-10%; read-out: KI (nM) CA II
# Procedure: as §1, §2
row,SMILES,Ki [nM]
1,"COc1ccc2c(c1)OS(=O)(=O)C(C(=O)Nc1ccc(Br)cc1)=C2 [Compound 44, N-(4-bromophenyl)-7methoxybenzo[e][1,2]oxathiine-3-carboxamide 2,2-dioxide]",> 100000
2,"COc1ccc(NC(=O)C2=Cc3ccc(OC)cc3OS2(=O)=O)cc1 [Compound 46, N-(4-methoxyphenyl)-7-methoxybenzo[e][1,2]oxathiine-3-carboxamide 2,2-dioxide]",> 100000
3,"COc1cccc(NC(=O)C2=Cc3ccc(OC)cc3OS2(=O)=O)c1 [Compound 47, N-(3-methoxyphenyl)-7-methoxybenzo[e][1,2]oxathiine-3-carboxamide 2,2-dioxide]",> 100000

# More lines, now with the values ahead:
row,Ki [nM],SMILES
1,> 100000,"COc1ccc2c(c1)OS(=O)(=O)C(C(=O)Nc1ccccc1)=C2 [Compound 43, 7-methoxy-N-phenylbenzo[e][1,2]oxathiine-3-carboxamide 2,2-dioxide]"
2,> 100000,"COc1ccc2c(c1)OS(=O)(=O)C(C(=O)Nc1cccc(Br)c1)=C2 [Compound 45, N-(3-bromophenyl)-7-methoxybenzo[e][1,2]oxathiine-3-carboxamide 2,2-dioxide]"

# Tested on: not given
# Assay: not given
# Conditions: not given
row,SMILES,melting point [°C]
1,"COc1ccc2c(c1)OS(=O)(=O)C(C(=O)Nc1ccc(Br)cc1)=C2 [Compound 44, N-(4-bromophenyl)-7methoxybenzo[e][1,2]oxathiine-3-carboxamide 2,2-dioxide]",272 to 275
2,"COc1ccc(NC(=O)C2=Cc3ccc(OC)cc3OS2(=O)=O)cc1 [Compound 46, N-(4-methoxyphenyl)-7-methoxybenzo[e][1,2]oxathiine-3-carboxamide 2,2-dioxide]",238 to 240
3,"COc1cccc(NC(=O)C2=Cc3ccc(OC)cc3OS2(=O)=O)c1 [Compound 47, N-(3-methoxyphenyl)-7-methoxybenzo[e][1,2]oxathiine-3-carboxamide 2,2-dioxide]",222 to 225

# Now from value to compound:
row,melting point [°C],SMILES
1,241 to 244,"COc1ccc2c(c1)OS(=O)(=O)C(C(=O)Nc1ccccc1)=C2 [Compound 43, 7-methoxy-N-phenylbenzo[e][1,2]oxathiine-3-carboxamide 2,2-dioxide]"
2,218 to 220,"COc1ccc2c(c1)OS(=O)(=O)C(C(=O)Nc1cccc(Br)c1)=C2 [Compound 45, N-(3-bromophenyl)-7-methoxybenzo[e][1,2]oxathiine-3-carboxamide 2,2-dioxide]"
